Measured values taken from patent US8455451B2, “2'-fluoro substituted carba-nucleoside analogs for antiviral treatment” (Gilead Sciences, Inc., priority 2009, dated 2013).
Where two headings read alike, the source gives them in different places.

Experiments:
[1] = molecular target: T1, wild type HCV Δ21 NS5b polymerase (Hepatitis C virus genotype 1b, UniProt Q9WMX2); test: HCV IC50 determination, NS5b polymerase assay, wild type enzyme; assay type: biochemical
T1 construct: 75 nM HCV Δ21 NS5b polymerase
Procedure: (§1) Assay Protocol: Either wild type or S282T (Migliaccio, et al, J. Biol. Chem. 2003, 49164-49170; Klumpp, et al., J. Biol. Chem. 2006, 3793-3799) mutant polymerase enzyme was used in this assay. NS5b polymerase assay (40 μL) was assembled by adding 28 μL, polymerase mixture (final concentration: 50 mM Tris-HCl at pH 7.5, 10 mM KCL, 5 mM MgCl2, 1 mM DTT, 10 mM EDTA, 4 ng/μL of RNA template, and 75 nM HCV Δ21 NS5b polymerase) to assay plates followed by 4 μL of compound dilution. The polymerase and compound were pre-incubated at 35° C. for 10 minute before the addition of 8 μL of nucleotide substrate mixture (33P-α-labeled competing nucleotide at KM and 0.5 mM of the remaining three nucleotides). The assay plates were covered and incubated at 35° C. for 90 min. Reactions were then filtered through 96-well DEAE-81 filter plates via vacuum. The filter plates were then washed under vacuum with multiple volumes of 0.125 M NaHPO4, water, and ethanol to remove unincorporated label. Plates were then counted on TopCount to assess the level of product synthesis over background controls. The IC50 value is determined using Prism fitting program.

[2] = molecular target: T2, S282T mutant HCV Δ21 NS5b polymerase (Hepatitis C virus genotype 1b, UniProt Q9WMX2, S2701T); test: biochemical; conditions: for fold shift (S282T IC50 vs WT IC50): Note of Table II
T2 construct: 75 nM HCV Δ21 NS5b polymerase
Procedure: as §1

[3] = system: HCV replicon cells; test: HCV EC50 determination, replicon luciferase assay; assay type: cell-based; conditions: Hepatitis C virus, 72 h
Procedure: Replicon cells were seeded in 96-well plates at a density of 8×10^3 cells per well in 100 μL of culture medium, excluding Geneticin. Compound was serially diluted in 100% DMSO and then added to the cells at a 1:200 dilution, achieving a final concentration of 0.5% DMSO and a total volume of 200 μL. Plates were incubated at 37° C. for 3 days, after which culture medium was removed and cells were lysed in lysis buffer provided by Promega's luciferase assay system. Following the manufacturer's instruction, 100 μL of luciferase substrate was added to the lysed cells and luciferase activity was measured in a TopCount luminometer.

[4] = system: Huh-luc/neo replicon cells; test: Metabolism study: intracellular triphosphate analog concentration; assay type: in vitro ADME; conditions: PD-A-8b to TP-8a versus B-7 to TP-3, Huh-luc/neo replicon cells
Excerpt: Applicants have observed that monophosphate prodrugs of nucleoside analogs with a nitrogen at the X^1 position can have enhanced activity over their counterparts with a carbon at the X^1 position. This difference in activity correlates to the amount of the active triphosphate analogs of the compounds in cells. This can be quantified by a metabolism study which quantifies the intracellular concentration of the triphosphate analogs. The higher intracellular concentration of the triphosphate metabolite correlates to the prodrug with enhanced activity.
Huh-luc/neo replicon cells containing HCV genotype 1b subgenomic replicons were maintained in Dulbecco's modified eagle medium containing glutamax supplemented with 10% heat inactivated fetal bovine serum, penicillin-streptomycin, and G418 disulphate salt solution. Cells were transferred to twelve well tissue culture plates by trypsonization and grown to confluency (0.88×10^6 cells/well). Cells were treated for 24 hours with 10 μM nucleoside, or 10 μM prodrug. After 24 hours, cells were washed 2 times with 2.0 mL ice cold 0.9% sodium chloride saline. […] Intracellular levels of the nucleoside triphosphates were quantified based on authentic standard curves by liquid chromatography coupled to tandem mass spectrometry.

[5] = molecular target: T1, wild type HCV Δ21 NS5b polymerase; conditions: read-out: WT IC50, value taken from the source in the Note column; cited from earlier work
[6] = molecular target: T2, S282T mutant HCV Δ21 NS5b polymerase; conditions: value taken from the source in the Note column; cited from earlier work
[7] = replicon cells, 3 days incubation, luciferase readout, read-out: EC50

C[C@@]1(F)[C@H](O)[C@@H](COP(=O)(O)OP(=O)(O)OP(=O)(O)O)O[C@H]1c1ccc2c(N)ncnn12
IC50 [1]: 0.034 µM

C[C@@]1(F)[C@H](O)[C@@H](COP(=O)(O)OP(=O)(O)OP(=O)(O)O)O[C@H]1c1cnc2c(N)ncnn12
IC50 [1]: 0.3 µM
IC50 [2]: 1.6 µM
fold shift (S282T IC50 vs WT IC50) [2]: (5.3 fold shift)

CC(C)OC(=O)OCOP(=O)(OCOC(=O)OC(C)C)OC[C@H]1O[C@@](C#N)(c2ccc3c(N)ncnn23)[C@](C)(F)[C@@H]1O [Compound 10]
EC50 [3, 7]: 6.5 to 8 µM

C[C@@]1(F)[C@H](O)[C@@H](COP(=O)(O)NCCc2c[nH]c3ccccc23)O[C@@]1(C#N)c1ccc2c(N)ncnn12 [Compound 22]
EC50 [3, 7]: 31 to 45 µM

C[C@@]1(F)[C@@H]2OP(=O)(O)OC[C@H]2O[C@@]1(C#N)c1ccc2c(N)ncnn12 [Compound 23]
EC50 [3, 7]: 39.4 to 40.3 µM

CC(C)OP1(=O)OC[C@H]2O[C@@](C#N)(c3ccc4c(N)ncnn34)[C@](C)(F)[C@@H]2O1 (stereo partly shown) [Compound 24]
EC50 [3, 7]: 40.3 to 70.5 µM

CCCCCCCOC(=O)[C@H](C)NP1(=O)OC[C@H]2O[C@@](C#N)(c3ccc4c(N)ncnn34)[C@](C)(F)[C@@H]2O1 (stereo partly shown) [Compound 25]
EC50 [3, 7]: 9.7 to 10 µM

CC(C)(C)C(=O)SCCOP(=O)(OCCSC(=O)C(C)(C)C)OC[C@H]1O[C@@H](c2cnc3c(N)nc(N)nn23)[C@](C)(F)[C@@H]1O [Compound A-1]
EC50 [3, 7]: 23 µM

CCOC(=O)[C@H](C)NP(=O)(OC[C@H]1O[C@@](C#N)(c2ccc3c(N)ncnn23)[C@](C)(F)[C@@H]1O)Oc1ccccc1 (stereo partly shown) [Compound B-1]
EC50 [3, 7]: 1.4 to 4.3 µM

CC(C)OC(=O)[C@H](C)NP(=O)(OC[C@H]1O[C@@](C#N)(c2ccc3c(N)ncnn23)[C@](C)(F)[C@@H]1O)Oc1ccccc1 (stereo partly shown) [Compound B-3]
EC50 [3, 7]: 16 to 28 µM

CCC(CC)COC(=O)C(C)(C)NP(=O)(OC[C@H]1O[C@@](C#N)(c2ccc3c(N)ncnn23)[C@](C)(F)[C@@H]1O)Oc1ccccc1 (stereo partly shown) [Compound B-4]
EC50 [3, 7]: 8.4 to 19 µM

CCOC(=O)CNP(=O)(OC[C@H]1O[C@@](C#N)(c2ccc3c(N)ncnn23)[C@](C)(F)[C@@H]1O)Oc1ccccc1 (stereo partly shown) [Compound B-5]
EC50 [3, 7]: 1.93 to 25.5 µM

CCOC(=O)[C@H](C)NP(=O)(OC[C@H]1O[C@@](C#N)(c2ccc3c(N)ncnn23)[C@](C)(F)[C@@H]1O)Oc1cccc2ccccc12 (stereo partly shown) [Compound B-6]
EC50 [3, 7]: 3.75 to 11.1 µM

CCOC(=O)[C@H](C)NP(=O)(OC[C@H]1O[C@@H](c2ccc3c(N)ncnn23)[C@](C)(F)[C@@H]1O)Oc1ccccc1 (stereo partly shown) [Compound B-7]
EC50 [3, 7]: 63 to 73 µM

CCOC(=O)[C@H](C)NP(=O)(OC[C@H]1O[C@@H](c2ccc3c(N)ncnn23)[C@](C)(F)[C@@H]1O)Oc1cccc2ccccc12 (stereo partly shown) [Compound B-8]
EC50 [3, 7]: 35 to 60 µM

CCOC(=O)[C@@H](NP(=O)(OC[C@H]1O[C@@](C#N)(c2ccc3c(N)ncnn23)[C@](C)(F)[C@@H]1O)Oc1ccccc1)C(C)C (stereo partly shown) [Compound C-1]
EC50 [3, 7]: 67 to 70 µM

CCOC(=O)[C@H](CCSC)NP(=O)(OC[C@H]1O[C@@](C#N)(c2ccc3c(N)ncnn23)[C@](C)(F)[C@@H]1O)Oc1ccccc1 (stereo partly shown) [Compound C-2]
EC50 [3, 7]: 3.9 to 12 µM

CCOC(=O)[C@H](Cc1c[nH]c2ccccc12)NP(=O)(OC[C@H]1O[C@@](C#N)(c2ccc3c(N)ncnn23)[C@](C)(F)[C@@H]1O)Oc1ccccc1 (stereo partly shown) [Compound C-3]
EC50 [3, 7]: 43 to 84 µM

CCOC(=O)[C@H](Cc1ccccc1)NP(=O)(OC[C@H]1O[C@@](C#N)(c2ccc3c(N)ncnn23)[C@](C)(F)[C@@H]1O)Oc1ccccc1 (stereo partly shown) [Compound C-4]
EC50 [3, 7]: 9.8 to 31 µM

CCOC(=O)[C@@H]1CCCN1P(=O)(OC[C@H]1O[C@@](C#N)(c2ccc3c(N)ncnn23)[C@](C)(F)[C@@H]1O)Oc1ccccc1 (stereo partly shown) [Compound C-5]
EC50 [3]: 24 to 28 µM

CCOC(=O)[C@H](CCS(C)(=O)=O)NP(=O)(OC[C@H]1O[C@@](C#N)(c2ccc3c(N)ncnn23)[C@](C)(F)[C@@H]1O)Oc1ccccc1 (stereo partly shown) [Compound C-6]
EC50 [3, 7]: 11 µM

CCOC(=O)[C@H](C)NP(=O)(OC[C@H]1O[C@@H](c2cnc3c(N)ncnn23)[C@](C)(F)[C@@H]1O)Oc1ccccc1 (stereo partly shown) [PD-A-8b]
EC50 [3, 7]: 0.68 µM
efficiency of activation of prodrug to its triphosphate analog, compared with B-7 [4]: more than two orders of magnitude more efficient

C[C@@]1(F)[C@H](O)[C@@H](COP(=O)(O)OP(=O)(O)OP(=O)(O)O)O[C@H]1c1cnc2c(=O)[nH]c(N)nn12 [TP-1]
IC50 [1]: 0.15 µM
IC50 [2]: 0.15 µM
fold shift (S282T IC50 vs WT IC50) [2]: (1 fold shift)

C[C@@]1(F)[C@H](O)[C@@H](COP(=O)(O)OP(=O)(O)OP(=O)(O)O)O[C@@]1(C#N)c1ccc2c(N)ncnn12 [TP-2]
IC50 [1]: 0.24 µM
IC50 [2]: 1.6 µM
fold shift (S282T IC50 vs WT IC50) [2]: (7 fold shift)

C[C@@]1(O)[C@H](O)[C@@H](COP(=O)(O)OP(=O)(O)OP(=O)(O)O)O[C@@]1(C#N)c1ccc2c(N)ncnn12 [triphosphate of (2R,3R,4R,5R)-2-(4-aminopyrrolo[1,2-f][1,2,4]triazin-7-yl)-3,4-dihydroxy-5-(hydroxymethyl)-3-methyl-tetrahydrofuran-2-carbonitrile]
fold shift (S282T IC50 vs WT IC50) [2]: WO/2009/132135 (242 fold shift)
IC50 [5]: 0.525 µM
IC50 [6]: 111 µM
